Laboratory results reported in the supplement of paper PMC11451515.

Tested on: SEM cells
Experiment: cell viability relative to DMSO control; higher = less cytotoxic
Conditions: 48 h
How it was run: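 Viability values are per-plate percentages of DMSO wells, with background from cell-free wells. Library compounds in DMSO were pin-dosed, in an 11-point threefold series from 47 μM to 0.79 nM, onto NOMO1 or SEM (500 cells/well) or P12-Ichikawa (1000 cells/well) leukemia cells in 1536-well plates (5 μl). Those cells had been adapted for at least four passages in each medium, and CellTiter-Glo One luminescence was read after 48 h at 37°C.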

[1] = HPLM + 10% dialyzed FBS, 0.000781 µM
[2] = HPLM + 10% dialyzed FBS, 0.00234 µM
[3] = HPLM + 10% dialyzed FBS, 0.00702 µM
[4] = HPLM + 10% dialyzed FBS, 0.0211 µM
[5] = HPLM + 10% dialyzed FBS, 0.0632 µM
[6] = HPLM + 10% dialyzed FBS, 0.19 µM
[7] = HPLM + 10% dialyzed FBS, 0.569 µM
[8] = HPLM + 10% dialyzed FBS, 1.71 µM
[9] = HPLM + 10% dialyzed FBS, 5.12 µM
[10] = HPLM + 10% dialyzed FBS, 15.4 µM
[11] = HPLM + 10% dialyzed FBS, 46.1 µM
[12] = RPMI 5 mM glucose + 10% FBS, 0.000781 µM
[13] = RPMI 5 mM glucose + 10% FBS, 0.00234 µM
[14] = RPMI 5 mM glucose + 10% FBS, 0.00702 µM
[15] = RPMI 5 mM glucose + 10% FBS, 0.0211 µM
[16] = RPMI 5 mM glucose + 10% FBS, 0.0632 µM
[17] = RPMI 5 mM glucose + 10% FBS, 0.19 µM
[18] = RPMI 5 mM glucose + 10% FBS, 0.569 µM
[19] = RPMI 5 mM glucose + 10% FBS, 1.71 µM
[20] = RPMI 5 mM glucose + 10% FBS, 5.12 µM
[21] = RPMI 5 mM glucose + 10% FBS, 15.4 µM
[22] = RPMI 5 mM glucose + 10% FBS, 46.1 µM
[23] = RPMI 5 mM glucose + 10% dialyzed FBS, 0.000781 µM
[24] = RPMI 5 mM glucose + 10% dialyzed FBS, 0.00234 µM
[25] = RPMI 5 mM glucose + 10% dialyzed FBS, 0.00702 µM
[26] = RPMI 5 mM glucose + 10% dialyzed FBS, 0.0211 µM
[27] = RPMI 5 mM glucose + 10% dialyzed FBS, 0.0632 µM
[28] = RPMI 5 mM glucose + 10% dialyzed FBS, 0.19 µM
[29] = RPMI 5 mM glucose + 10% dialyzed FBS, 0.569 µM
[30] = RPMI 5 mM glucose + 10% dialyzed FBS, 1.71 µM
[31] = RPMI 5 mM glucose + 10% dialyzed FBS, 5.12 µM
[32] = RPMI 5 mM glucose + 10% dialyzed FBS, 15.4 µM
[33] = RPMI 5 mM glucose + 10% dialyzed FBS, 46.1 µM

| SMILES | cell viability [1] [%] | cell viability [2] [%] | cell viability [3] [%] | cell viability [4] [%] | cell viability [5] [%] | cell viability [6] [%] | cell viability [7] [%] | cell viability [8] [%] | cell viability [9] [%] | cell viability [10] [%] | cell viability [11] [%] | cell viability [12] [%] | cell viability [13] [%] | cell viability [14] [%] | cell viability [15] [%] | cell viability [16] [%] | cell viability [17] [%] | cell viability [18] [%] | cell viability [19] [%] | cell viability [20] [%] | cell viability [21] [%] | cell viability [22] [%] | cell viability [23] [%] | cell viability [24] [%] | cell viability [25] [%] | cell viability [26] [%] | cell viability [27] [%] | cell viability [28] [%] | cell viability [29] [%] | cell viability [30] [%] | cell viability [31] [%] | cell viability [32] [%] | cell viability [33] [%] |
| --- | --- | --- | --- | --- | --- | --- | --- | --- | --- | --- | --- | --- | --- | --- | --- | --- | --- | --- | --- | --- | --- | --- | --- | --- | --- | --- | --- | --- | --- | --- | --- | --- | --- |
| CCN(CC)C(=S)SSC(=S)N(CC)CC | 99.8 | 99.4 | 115 | 108 | 102 | 85.6 | 55.2 | 40.4 | 4.49 | 3.73 | 2.19 | 74.9 | 74.3 | 78.7 | 79.2 | 73.5 | 55.6 | 48.6 | 32.9 | 2.66 | 1.26 | 0.625 | 87.8 | 97.9 | 97.2 | 103 | 99.3 | 76.6 | 44.3 | 33.5 | 3.67 | 2.09 | 1.26 |
| C[C@@H](O)[C@@H]1[C@H]2[C@@H](C)\C(=C(/N2C1=O)C(=O)OCOC(=O)C(C)(C)C)SC3CN(C3)/C4=N/CCS4 | 74.8 | 95.7 | 99.2 | 112 | 117 | 102 | 101 | 108 | 107 | 97.2 | 82.1 | 88.7 | 114 | 119 | 117 | 101 | 116 | 111 | 125 | 117 | 109 | 72.8 | 82.5 | 109 | 120 | 113 | 122 | 138 | 106 | 113 | 121 | 121 | 85.9 |
| C[C@H]1C[C@H]2[C@@H]3CCC4=CC(=O)C=C[C@]4(C)[C@@]3(F)[C@@H](O)C[C@]2(C)[C@@]1(O)C(=O)CO | 86.1 | 105 | 101 | 92.8 | 99.5 | 78.5 | 68.9 | 27.5 | 67.1 | 31.3 | 66 | 101 | 110 | 106 | 105 | 91.6 | 67.3 | 66.7 | 26.4 | 69.6 | 22.8 | 64.4 | 108 | 140 | 114 | 93.6 | 87.1 | 72.6 | 72.3 | 24 | 53.2 | 23.9 | 74 |
| ClC1=CC(=CC=C1)N2CCN(CCCN3\N=C4\C=C/C=C\N4C3=O)CC2 | 79.3 | 107 | 107 | 112 | 121 | 130 | 127 | 131 | 140 | 131 | 145 | 117 | 126 | 123 | 138 | 140 | 138 | 146 | 157 | 150 | 165 | 127 |  |  |  |  |  |  |  |  |  |  |  |
| CC(=O)OCC(=O)[C@@]12\N=C(C)/O[C@@H]1C[C@H]3[C@@H]4CCC/5=C/C(=O)/C=C\[C@]5(C)[C@H]4[C@@H](O)C[C@]23C | 75.3 | 85.5 | 87.8 | 85.1 | 68 | 97 | 97.8 | 100 | 92.5 | 90.1 | 24.9 | 86.6 | 103 | 91.5 | 102 | 66.3 | 109 | 97.9 | 113 | 86.9 | 86.6 | 18.2 | 101 | 95.2 | 107 | 106 | 80.7 | 104 | 105 | 115 | 86.8 | 79.8 | 19.4 |
| CC1=CC=CC=C1CN2C(=O)C/3=C(/CCN(CC4=CC=CC=C4)C3)N\5CC\N=C25 | 113 | 121 | 125 | 115 | 117 | 120 | 115 | 110 | 94 | 25.3 | 19.6 | 129 | 119 | 114 | 101 | 114 | 109 | 97.1 | 95.9 | 50.9 | 13.2 | 9.39 | 127 | 121 | 119 | 119 | 141 | 119 | 136 | 133 | 58.4 | 19.6 | 19.8 |
| N=C(N)NC(=O)c1nc(Cl)c(N)nc1N | 101 | 104 | 120 | 111 | 114 | 104 | 136 | 114 | 129 | 124 | 123 | 101 | 107 | 108 | 108 | 118 | 119 | 117 | 113 | 113 | 114 | 120 | 101 | 122 | 110 | 108 | 126 | 124 | 120 | 126 | 119 | 116 | 121 |
| Cc1cc(Nc2nc(N[C@@H](C)c3ncc(F)cn3)ncc2Cl)n[nH]1 | 93 | 97.4 | 109 | 114 | 103 | 106 | 102 | 99.4 | 61.2 | 21.7 | 19.4 | 120 | 129 | 114 | 110 | 112 | 126 | 110 | 26.2 | 19 | 17.1 | 20.3 |  |  |  |  |  |  |  |  |  |  |  |
